Test: Compatibility test of compound of formula (I) with lactose, change of impurities
Assay type: physicochemical
Conditions: room temperature
Description: A compatibility test was carried out with lactose (a reducing sugar) and the compound of formula (I) at room temperature in which, after both were mixed in a certain ratio, the changes of impurity in the compound of formula (I) were tested.

- Main peak area (%): 99.247%
- Number of impurities: 5
- Total impurities (%): 0.753%
Compound: CS(=O)(=O)n1cc2c(n1)CN([C@@H]1C[C@H](N)[C@@H](c3cc(F)ccc3F)O[C@@H]1C(F)(F)F)C2 [Compound of formula (I)]

From patent publication US11974985B2, “Composition of aminopyran derivative” (HAISCO PHARMACEUTICAL GROUP CO., LTD., priority 2018, dated 2024)
